*1 amine or outer side, *2 acyl side, *3 side chain or, on linkers, in order; H or OH if unused. Where a SMILES comes first, the peptide text is derived from it. Bridges are numbered along the chain shown (N, C = ends). [ ]: non-standard residue; d: D form. The star is where a group is joined. Ala(pyrimidin-5-yl) = N[C@@H](Cc1cncnc1)C(=O)O; NMe3Pal(5-F) = CN[C@@H](Cc1cncc(F)c1)C(=O)O; NMePhe(3-Me) = CN[C@@H](Cc1cccc(C)c1)C(=O)O; NMePhe(3-F) = CN[C@@H](Cc1cccc(F)c1)C(=O)O; Phe(2,6-F2) = N[C@@H](Cc1c(F)cccc1F)C(=O)O; X42 = O=C([C@H](Cc1cc(F)ncc1F)N[*:1])[*:2]; X25 = O=C([C@H](Cc1ccc(F)nc1)N[*:1])[*:2]; X27 = Cc1ccc(C[C@H](N[*:1])C(=O)[*:2])cn1; NMeNva(5,5-F2) = CN[C@@H](CCC(F)F)C(=O)O; X24 = O=C([C@H](Cc1ccncc1Cl)N[*:1])[*:2]; X26 = Cn1cc(C[C@H](N[*:1])C(=O)[*:2])cn1; X11 = CC(C)(F)CC[C@H](N[*:1])C(=O)[*:2]; X13 = O=C([C@H](Cc1ccncc1F)N[*:1])[*:2]; X30 = O=C([C@H](Cc1ncccc1F)N[*:1])[*:2]; Nle(5,5-F2) = CC(F)(F)CC[C@H](N)C(=O)O; Phe(4-F) = N[C@@H](Cc1ccc(F)cc1)C(=O)O; Phe(2-F) = N[C@@H](Cc1ccccc1F)C(=O)O; X31 = O=C([C@H](CCC1CC1)N[*:1])[*:2]; NMe3Pal = CN[C@@H](Cc1cccnc1)C(=O)O; X1 = O=C(C12CC(CN[*:1])(C1)C2)[*:2]; Ala(cPr) = N[C@@H](CC1CC1)C(=O)O; NMeF = CN[C@@H](Cc1ccccc1)C(=O)O; PhLac = O=C(O)[C@@H](O)Cc1ccccc1; 3Pal = N[C@@H](Cc1cccnc1)C(=O)O; Ahp(2) = CCCCC[C@H](N)C(=O)O; Cba = N[C@@H](CC1CCC1)C(=O)O; hLeu = CC(C)CC[C@H](N)C(=O)O; NMeS = CN[C@@H](CO)C(=O)O; αMeC = C[C@](N)(CS)C(=O)O; NMeA = CN[C@@H](C)C(=O)O; Nle = CCCC[C@H](N)C(=O)O; Pyrrolidide = C1CCN(*)C1
Biological target: phosphorylation levels of ERK1/2 in AsPC-1 (homozygous KRAS-G12D) cells (Homo sapiens, UniProt P01116, G12D)
Sequence (P01116 1-186 G12D): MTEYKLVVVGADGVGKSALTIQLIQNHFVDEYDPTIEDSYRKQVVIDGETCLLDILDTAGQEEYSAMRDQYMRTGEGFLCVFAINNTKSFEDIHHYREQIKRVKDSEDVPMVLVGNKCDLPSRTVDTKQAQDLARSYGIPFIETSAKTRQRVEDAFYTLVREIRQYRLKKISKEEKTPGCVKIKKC
Assay: Cellular phospho-ERK assay in AsPC-1 cells (Alpha Screen), assay medium without fetal bovine serum;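 further: signal taken as phospho-ERK over total ERK per well, both detected in one multiplex bead assay, EC50 from four-parameter logistic fit of dose-response curves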
Format: cell-based
Details: phospho-ERK AlphaScreen, 18 h
Method: Assay plate was incubated at 37° C. 5% CO2 for the indicated length of time. […] Phosphorylated ERK and total ERK levels were detected by Alpha SureFire Ultra Multiplex pERK kit (PerkinElmer MPSU-PTERK) using 5 μL, acceptor bead mix and 5 μL donor bead mix, both prepared following the manufacturer's protocol. Plates were sealed using aluminum sealing tape (Costar 07-200-683) during incubation at ambient temperature with constant shaking at 300 rpm for 1 h (both acceptor and donor). Assay plates were read on a Envision Xcite Multilabel Reader (PerkinElmer 1040900) at ambient temperature, with emission at 535 nm (Total ERK) and emission at 615 nm (Phospho ERK). Ratio of pERK vs total ERK in each well was used as the final readout. Dose response curves and EC50 were analyzed using a 4-parameter logistic equation in GraphPad Prism software.

SMILES | EC50 [µM]
C[C@H]1C(=O)N[C@@H](Cc2cncnc2)C(=O)N[C@@H](CC2CC2)C(=O)N[C@@H](Cc2ccccc2F)C(=O)N[C@@H](CCC(C)(C)F)C(=O)N(C)[C@@H](Cc2ccccc2)C(=O)NCC23CC(C2)(C3)C(=O)O[C@@H](Cc2ccccc2)C(=O)N1C [compound 277, cyclo(FLac-NMeA-PyrimAla-cPrA-Phe2F-hL3F-NMeF-amBCP)] (cyclo([Ala(cPr)][Phe(2-F)][X11][NMeF][X1][PhLac][NMeA][Ala(pyrimidin-5-yl)])) | 0.793
CCCCC[C@@H]1NC(=O)[C@H](Cc2ccc(OC)cc2)NC(=O)[C@H](CC2CCC2)NC(=O)[C@H](Cc2cc[nH]c(=O)c2)NC(=O)[C@H](CCCNC(=N)N)NC(=O)[C@H](Cc2ccccc2)NC(=O)CSC[C@@](C)(C(N)=O)NC(=O)[C@H](Cc2ccccc2)N(C)C1=O [compound 368, cyclo(F-R-SCO4Pal-cBuA-TyrOMe-Ahp-NMeF-aMeCl-ClAc)] | > 50.8
CCCC[C@@H]1NC(=O)[C@H](Cc2cccnc2)NC(=O)[C@H](C)N(C)C(=O)[C@H](Cc2ccc(F)cc2)NC(=O)C23CC(CNC(=O)[C@H](Cc4cccnc4)N(C)C(=O)[C@H](CCCC)NC(=O)[C@H](Cc4ccccc4F)NC1=O)(C2)C3 [compound 167, cyclo(Phe4F-NMeA-3Pal-Nle-Phe2F-Nle-NMe3Pal-amBCP)] (cyclo([3Pal][Nle][Phe(2-F)][Nle][NMe3Pal][X1][Phe(4-F)][NMeA])) | 42.8
C[C@H]1C(=O)N[C@@H](Cc2cccnc2)C(=O)N[C@@H](CC2CC2)C(=O)N[C@@H](Cc2ccccc2F)C(=O)N[C@@H](CCC(C)(C)F)C(=O)N(C)[C@@H](Cc2cncc(F)c2)C(=O)NCC23CC(C2)(C3)C(=O)O[C@@H](Cc2ccccc2)C(=O)N1C [compound 284, cyclo(FLac-NMeA-3Pal-cPrA-Phe2F-hL3F-NMe3Pal5F-amBCP)] (cyclo([3Pal][Ala(cPr)][Phe(2-F)][X11][NMe3Pal(5-F)][X1][PhLac][NMeA])) | 4.59
CCCC[C@@H]1NC(=O)[C@H](Cc2cccnc2)NC(=O)[C@H](COC)N(C)C(=O)[C@H](Cc2ccccc2)OC(=O)C23CC(CNC(=O)[C@H](Cc4cccnc4)N(C)C(=O)[C@H](CCCC)NC(=O)[C@H](Cc4ccccc4F)NC1=O)(C2)C3 [compound 255, cyclo(FLac-nMeSMe-3Pal-Nle-Phe2F-Nle-NMe3Pal-amBCP)] (cyclo([3Pal][Nle][Phe(2-F)][Nle][NMe3Pal][X1][PhLac][NMeS](Me))) | > 50.8
CC(C)CC[C@@H]1NC(=O)[C@H](Cc2cc(F)ncc2F)NC(=O)[C@H](CC2CC2)NC(=O)[C@H](Cc2cncnc2)NC(=O)[C@H](C)N(C)C(=O)[C@H](Cc2ccccc2)OC(=O)C23CC(CNC(=O)[C@H](Cc4ccccc4)N(C)C1=O)(C2)C3 [compound 280, cyclo(FLac-NMcA-PyrimAla-cPrA-4Pal25F2-hL-NMeF-amBCP)] (cyclo([Ala(cPr)][X42][hLeu][NMeF][X1][PhLac][NMeA][Ala(pyrimidin-5-yl)])) | 1.23
Cc1cccc(C[C@H]2C(=O)NCC34CC(C3)(C4)C(=O)O[C@@H](Cc3ccccc3)C(=O)N(C)[C@@H](C)C(=O)N[C@@H](Cc3cncnc3)C(=O)N[C@@H](CC3CC3)C(=O)N[C@@H](Cc3ccccc3F)C(=O)N[C@@H](CCC3CC3)C(=O)N2C)c1 [compound 334, cyclo(FLac-NMeA-PyrimAla-cPrA-Phe2F-hcPrA-NMePhe3Me-amBCP)] (cyclo([Ala(cPr)][Phe(2-F)][X31][NMePhe(3-Me)][X1][PhLac][NMeA][Ala(pyrimidin-5-yl)])) | 0.224
CC(C)CC[C@@H]1NC(=O)[C@H](Cc2c(F)cccc2F)NC(=O)[C@H](CC2CCC2)NC(=O)[C@H](Cc2cncnc2)NC(=O)[C@H](C)N(C)C(=O)[C@H](Cc2ccccc2)OC(=O)C23CC(CNC(=O)[C@H](Cc4ccccc4)N(C)C1=O)(C2)C3 [compound 226, cyclo(FLac-NMeA-PyrimAla-cBuA-Phe26F2-hL-NMeF-amBCP)] (cyclo([Cba][Phe(2,6-F2)][hLeu][NMeF][X1][PhLac][NMeA][Ala(pyrimidin-5-yl)])) | 0.355
C[C@H]1C(=O)N[C@@H](Cc2cncnc2)C(=O)N[C@@H](CC2CC2)C(=O)N[C@@H](Cc2ccncc2Cl)C(=O)N[C@@H](CCC(C)(C)F)C(=O)N(C)[C@@H](Cc2ccccc2)C(=O)NCC23CC(C2)(C3)C(=O)O[C@@H](Cc2ccccc2)C(=O)N1C [compound 299, cyclo(FLac-NMeA-PyrimAla-cPrA-4Pal2Cl-hL3F-NMeF-amBCP)] (cyclo([Ala(cPr)][X24][X11][NMeF][X1][PhLac][NMeA][Ala(pyrimidin-5-yl)])) | > 50.8
Cc1cccc(C[C@H]2C(=O)NCC34CC(C3)(C4)C(=O)O[C@@H](Cc3ccccc3)C(=O)N(C)[C@@H](C)C(=O)N[C@@H](Cc3cncnc3)C(=O)N[C@@H](CC3CC3)C(=O)N[C@@H](Cc3ccncc3F)C(=O)N[C@@H](CCC(C)C)C(=O)N2C)c1 [compound 279, cyclo(FLac-NMeA-PyrimAla-cPrA-4Pal2F-hL-NMePhe3Me-amBCP)] (cyclo([Ala(cPr)][X13][hLeu][NMePhe(3-Me)][X1][PhLac][NMeA][Ala(pyrimidin-5-yl)])) | 4.02
CCCC[C@@H]1NC(=O)[C@H](Cc2cncnc2)NC(=O)[C@H](C)N(C)C(=O)[C@H](Cc2ccccc2)OC(=O)C23CC(CNC(=O)[C@H](Cc4ccccc4)N(C)C(=O)[C@H](CCCC)NC(=O)[C@H](Cc4ncccc4F)NC1=O)(C2)C3 [compound 229, cyclo(FLac-NMeA-PyrimAla-Nle-2Pal6F-Nle-NMeF-amBCP)] (cyclo([NMeA][Ala(pyrimidin-5-yl)][Nle][X30][Nle][NMeF][X1][PhLac])) | 48.7
CCCCC[C@@H]1NC(=O)[C@H](Cc2ccc(OC)cc2)NC(=O)[C@H](CC2CCC2)NC(=O)[C@H](Cc2ccc(-c3cccnc3N)cc2)NC(=O)[C@H](CCCNC(=N)N)NC(=O)[C@H](Cc2ccccc2)NC(=O)CSC[C@@](C)(C(N)=O)NC(=O)[C@H](Cc2ccccc2)N(C)C1=O [compound 390, cyclo(F-R-Phe43PyNH2-cBuA-TyrOMe-Ahp-NMeF-aMeCl-ClAc)] | > 50.8
CCCC[C@@H]1NC(=O)[C@H](Cc2cncnc2)NC(=O)[C@H](CCCn2ccnc2)N(C)C(=O)[C@H](Cc2ccccc2)OC(=O)C23CC(CNC(=O)[C@H](Cc4ccccc4)N(C)C(=O)[C@H](CCCC)NC(=O)[C@H](Cc4ccccc4F)NC1=O)(C2)C3 (single isomer, unassigned) [compound 223, cyclo(FLac-NMeNvalmid-PyrimAla-Nle-Phe2F-Nle-NMeF-amBCP)] | 11.1
CCCCC[C@@H]1NC(=O)[C@H](CC(=O)N2CCCC2)NC(=O)[C@H](CC2CCC2)NC(=O)[C@H](Cc2cccnc2)NC(=O)[C@H](CCCNC(=N)N)NC(=O)[C@H](Cc2ccccc2)NC(=O)CSC[C@@](C)(C(N)=O)NC(=O)[C@H](Cc2ccccc2)N(C)C1=O [compound 373, cyclo(F-R~3Pal-cBuA-PyD-Ahp-NMeF-aMeCl-ClAc)] ({CH2CO}-FR[3Pal][Cba]D(Pyrrolidide)[Ahp(2)][NMeF][αMeC]-NH2; thioether N-8) | > 50.8
CCCC[C@@H]1NC(=O)[C@H](Cc2cncnc2)NC(=O)[C@H](C)N(C)C(=O)[C@H](Cc2ccccc2)OC(=O)C23CC(CNC(=O)[C@H](Cc4cccc(F)c4)N(C)C(=O)[C@H](CCCC)NC(=O)[C@H](Cc4ccccc4F)NC1=O)(C2)C3 [compound 174, cyclo(FLac-NMeA-PyrimAla-Nle-Phe2F-Nle-NMePhe3F-amBCP)] (cyclo([NMeA][Ala(pyrimidin-5-yl)][Nle][Phe(2-F)][Nle][NMePhe(3-F)][X1][PhLac])) | 0.734
CCCCC[C@@H]1NC(=O)[C@H](Cc2ccc(OC)cc2)NC(=O)[C@H](CC2CCC2)NC(=O)[C@H](Cc2ccc(=O)[nH]c2)NC(=O)[C@H](CCCNC(=N)N)NC(=O)[C@H](Cc2ccccc2)NC(=O)CSC[C@@](C)(C(N)=O)NC(=O)[C@H](Cc2ccccc2)N(C)C1=O [compound 369, cyclo(F-R-4CO3Pal-cBuA-TyrOMe-Abp-NMeF-aMeCl-ClAc)] | > 50.8
CCCC[C@@H]1NC(=O)[C@H](Cc2cnn(C)c2)NC(=O)[C@H](C)N(C)C(=O)[C@H](Cc2ccccc2)OC(=O)C23CC(CNC(=O)[C@H](Cc4cccnc4)N(C)C(=O)[C@H](CCCC)NC(=O)[C@H](Cc4ccccc4F)NC1=O)(C2)C3 [compound 400, cyclo(FLac-NMeA-Ala4PyzlMe-Nle-Phe2F-Nle-NMe3Pal-amBCP)] (cyclo([NMe3Pal][X1][PhLac][NMeA][X26][Nle][Phe(2-F)][Nle])) | 31.4
CCCC[C@@H]1NC(=O)[C@H](Cc2ccc(F)nc2)NC(=O)[C@H](C)N(C)C(=O)[C@H](Cc2ccccc2)OC(=O)C23CC(CNC(=O)[C@H](Cc4ccccc4)N(C)C(=O)[C@H](CCCC)NC(=O)[C@H](Cc4ncccc4F)NC1=O)(C2)C3 [compound 228, cyclo(FLac-NMeA-4F3Pal-Nle-2Pal6F-Nle-NMeF-amBCP)] (cyclo([NMeA][X25][Nle][X30][Nle][NMeF][X1][PhLac])) | > 50.8
C[C@H]1C(=O)N[C@@H](Cc2cccnc2)C(=O)N[C@@H](CC2CC2)C(=O)N[C@@H](Cc2ccccc2F)C(=O)N[C@@H](CCC(C)(F)F)C(=O)N(C)[C@@H](Cc2ccccc2)C(=O)NCC23CC(C2)(C3)C(=O)O[C@@H](Cc2ccccc2)C(=O)N1C [compound 289, cyclo(FLac-NMeA-3Pal-cPrA-Phe2F-Nle3F2-NMeF-amBCP)] (cyclo([3Pal][Ala(cPr)][Phe(2-F)][Nle(5,5-F2)][NMeF][X1][PhLac][NMeA])) | 1.07
CCCC[C@@H]1NC(=O)[C@H](Cc2cccnc2)NC(=O)[C@H](C)N(C)C(=O)[C@H](Cc2ccc(C)nc2)NC(=O)C23CC(CNC(=O)[C@H](Cc4cccnc4)N(C)C(=O)[C@H](CCCC)NC(=O)[C@H](Cc4ccccc4F)NC1=O)(C2)C3 [compound 164, cyclo(4Me3Pal-NMeA-3Pal-Nle-Phe2F-Nle-NMe3Pal-amBCP)] (cyclo([3Pal][Nle][Phe(2-F)][Nle][NMe3Pal][X1][X27][NMeA])) | > 50.8
CC(C)CC[C@@H]1NC(=O)[C@H](Cc2ccccc2F)NC(=O)[C@H](CC2CC2)NC(=O)[C@H](Cc2cncnc2)NC(=O)[C@H](CCC(F)F)N(C)C(=O)[C@H](Cc2ccccc2)OC(=O)C23CC(CNC(=O)[C@H](Cc4ccccc4)N(C)C1=O)(C2)C3 [compound 217, cyclo(FLac-NMeNvaF2-PyrimAla-cPrA-Phe2F-hL-NMeF-amBCP)] (cyclo([Ala(cPr)][Phe(2-F)][hLeu][NMeF][X1][PhLac][NMeNva(5,5-F2)][Ala(pyrimidin-5-yl)])) | 1.77

— US20260001914A1, “MACROCYCLIC PEPTIDES TARGETING KRAS” (Merck Sharp & Dohme LLC, priority 2022, published 2026)
